One assay has as its target T1, K-RAS G12C (Homo sapiens, UniProt P01116, G12C).
T1 construct: His tag; purchased Stratech
Kind of assay: Compound depletion assay, K-RAS G12C. In kind it is binding. To be noted: G12C protein 20 μM, compound 8 μM, 25° C. A digest of the protocol:
(§1)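 His-tagged K-RAS (20 μM) in 20 mM HEPES pH 7.5, 150 mM NaCl, 1 mM MgCl2 incubated with 8 μM compound (final) at 25 °C with agitation. At 0, 30, 180, 360, 1440 min, samples were acid/acetonitrile-quenched and remaining free compound quantified by LC-MS/MS against propranolol, as percent of time zero.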

The next assay concerns the target T2, K-RAS G12D (Homo sapiens, UniProt P01116, G12D).
T2 construct: His tag; purchased Stratech
Kind of assay: Compound depletion assay, K-RAS G12D. Format: binding. Conditions: G12D protein 20 μM, compound 8 μM, 25° C. A digest of the protocol:
as §1

T2 sequence (P01116 1-188 isoform P01116-2 G12D): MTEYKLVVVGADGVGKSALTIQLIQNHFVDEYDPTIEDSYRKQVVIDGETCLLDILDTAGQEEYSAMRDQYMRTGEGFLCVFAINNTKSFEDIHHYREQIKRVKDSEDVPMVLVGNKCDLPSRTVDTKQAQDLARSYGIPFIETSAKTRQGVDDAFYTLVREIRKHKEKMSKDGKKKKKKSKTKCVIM
T1 sequence (P01116 1-188 isoform P01116-2 G12C): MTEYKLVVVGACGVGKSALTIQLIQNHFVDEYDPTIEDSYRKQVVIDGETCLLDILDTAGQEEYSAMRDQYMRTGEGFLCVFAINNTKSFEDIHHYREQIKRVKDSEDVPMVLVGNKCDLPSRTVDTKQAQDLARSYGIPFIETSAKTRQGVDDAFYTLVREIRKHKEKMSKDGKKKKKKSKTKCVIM

For `C=CC(=O)N1CCN(c2cc(C(=O)Nc3cc(O)cc4ccccc34)nc(OC[C@H]3CCCN3C)n2)C[C@@H]1CC#N` [Example 34, 6-[(3S)-3-(cyanomethyl)-4-prop-2-enoyl-piperazin-1-yl]-N-(3-hydroxy-1-naphthyl)-2-[[(2R)-1-methylpyrrolidin-2-yl]methoxy]pyrimidine-4-carboxamide], on K-RAS G12C, the “30 min Category (compound remaining at timepoint)” value was “B (30%-70% compound remaining at timepoint)”, the “3 hr Category (compound remaining at timepoint)” value is “C (≤30% compound remaining at timepoint)” and the “6 hr Category (compound remaining at timepoint)” value is listed as “C (≤30% compound remaining at timepoint)”. On K-RAS G12D, the “30 min Category (compound remaining at timepoint)” value was “A (≥70% compound remaining at timepoint)”, the “3 hr Category (compound remaining at timepoint)” value is “A (≥70% compound remaining at timepoint)” and the “6 hr Category (compound remaining at timepoint)” value is “A (≥70% compound remaining at timepoint)”.

Take `C=CC(=O)N1CCN(c2cc(C(=O)Nc3cc(O)cc4ccccc34)nc(OCc3ccnn3C)n2)C[C@@H]1CC#N` [Example 35, 6-[(3S)-3-(cyanomethyl)-4-prop-2-enoyl-piperazin-1-yl]-N-(3-hydroxy-1-naphthyl)-2-[(2-methylpyrazol-3-yl)methoxy]pyrimidine-4-carboxamide]: at K-RAS G12C, the “30 min Category (compound remaining at timepoint)” value was “B (30%-70% compound remaining at timepoint)”, the “3 hr Category (compound remaining at timepoint)” value is reported as “C (≤30% compound remaining at timepoint)” and the “6 hr Category (compound remaining at timepoint)” value is reported as “C (≤30% compound remaining at timepoint)”. Also, on K-RAS G12D, the “30 min Category (compound remaining at timepoint)” value is listed as “A (≥70% compound remaining at timepoint)”, the “3 hr Category (compound remaining at timepoint)” value is “A (≥70% compound remaining at timepoint)” and the “6 hr Category (compound remaining at timepoint)” value is “A (≥70% compound remaining at timepoint)”.

For `C=CC(=O)N1CCN(c2cc(C(=O)Nc3cc(O)cc4ccccc34)nc(NCc3cnn(C)c3)n2)C[C@@H]1CC#N` [Example 36, 6-[(3S)-3-(cyanomethyl)-4-prop-2-enoyl-piperazin-1-yl]-N-(3-hydroxy-1-naphthyl)-2-[(1-methylpyrazol-4-yl)methylamino]pyrimidine-4-carboxamide], on K-RAS G12C, the “30 min Category (compound remaining at timepoint)” value is “A (≥70% compound remaining at timepoint)”, the “3 hr Category (compound remaining at timepoint)” value is reported as “A (≥70% compound remaining at timepoint)” and the “6 hr Category (compound remaining at timepoint)” value was “B (30%-70% compound remaining at timepoint)”. For the same compound, at K-RAS G12D, the “30 min Category (compound remaining at timepoint)” value is listed as “A (≥70% compound remaining at timepoint)”, the “3 hr Category (compound remaining at timepoint)” value is recorded as “A (≥70% compound remaining at timepoint)” and the “6 hr Category (compound remaining at timepoint)” value is recorded as “A (≥70% compound remaining at timepoint)”.

Consider `C=CC(=O)N1CCN(c2cc(C(=O)Nc3cc(O)cc4ccccc34)nc(N3CCN(CCO)CC3)n2)C[C@@H]1CC#N` [Example 37, 6-[(3S)-3-(cyanomethyl)-4-prop-2-enoyl-piperazin-1-yl]-2-[4-(2-hydroxyethyl)piperazin-1-yl]-N-(3-hydroxy-1-naphthyl)pyrimidine-4-carboxamide], for which, on K-RAS G12C, the “30 min Category (compound remaining at timepoint)” value is “B (30%-70% compound remaining at timepoint)”, the “3 hr Category (compound remaining at timepoint)” value is on record as “C (≤30% compound remaining at timepoint)” and the “6 hr Category (compound remaining at timepoint)” value is on record as “C (≤30% compound remaining at timepoint)”. In addition, on K-RAS G12D, the “30 min Category (compound remaining at timepoint)” value was “A (≥70% compound remaining at timepoint)”, the “3 hr Category (compound remaining at timepoint)” value is “A (≥70% compound remaining at timepoint)” and the “6 hr Category (compound remaining at timepoint)” value was “A (≥70% compound remaining at timepoint)”.

`C=CC(=O)N1CCN(c2cc(C(=O)Nc3cc(O)cc4ccccc34)nc(-c3cccc4c3cnn4C)n2)C[C@@H]1CC#N` [Example 38, 6-[(3S)-3-(cyanomethyl)-4-prop-2-enoyl-piperazin-1-yl]-N-(3-hydroxy-1-naphthyl)-2-(1-methylindazol-4-yl)pyrimidine-4-carboxamide]: at K-RAS G12C, the “30 min Category (compound remaining at timepoint)” value is “A (≥70% compound remaining at timepoint)”, the “3 hr Category (compound remaining at timepoint)” value is “A (≥70% compound remaining at timepoint)” and the “6 hr Category (compound remaining at timepoint)” value is “A (≥70% compound remaining at timepoint)”. On K-RAS G12D, the “30 min Category (compound remaining at timepoint)” value is given as “A (≥70% compound remaining at timepoint)”, the “3 hr Category (compound remaining at timepoint)” value is listed as “A (≥70% compound remaining at timepoint)” and the “6 hr Category (compound remaining at timepoint)” value is given as “A (≥70% compound remaining at timepoint)”.

Take `C=CC(=O)N1CCN(c2cc(C(=O)Nc3cc(O)cc4ccccc34)nc(-c3cccc4cnn(C)c34)n2)C[C@@H]1CC#N` [Example 39, 6-[(3S)-3-(cyanomethyl)-4-prop-2-enoyl-piperazin-1-yl]-N-(3-hydroxy-1-naphthyl)-2-(1-methylindazol-7-yl)pyrimidine-4-carboxamide]: on K-RAS G12C, the “30 min Category (compound remaining at timepoint)” value was “A (≥70% compound remaining at timepoint)”, the “3 hr Category (compound remaining at timepoint)” value was “B (30%-70% compound remaining at timepoint)” and the “6 hr Category (compound remaining at timepoint)” value was “B (30%-70% compound remaining at timepoint)”. At K-RAS G12D, the “30 min Category (compound remaining at timepoint)” value is reported as “A (≥70% compound remaining at timepoint)”, the “3 hr Category (compound remaining at timepoint)” value was “A (≥70% compound remaining at timepoint)” and the “6 hr Category (compound remaining at timepoint)” value is recorded as “A (≥70% compound remaining at timepoint)”.

`C=CC(=O)N1CCN(c2cc(C(=O)Nc3cc(O)cc4ccccc34)nc(Cc3ccccc3)n2)C[C@@H]1CC#N` [Example 40, 2-benzyl-6-[(3S)-3-(cyanomethyl)-4-prop-2-enoyl-piperazin-1-yl]-N-(3-hydroxy-1-naphthyl)pyrimidine-4-carboxamide]: at K-RAS G12C, the “30 min Category (compound remaining at timepoint)” value is reported as “A (≥70% compound remaining at timepoint)”, the “3 hr Category (compound remaining at timepoint)” value was “A (≥70% compound remaining at timepoint)” and the “6 hr Category (compound remaining at timepoint)” value is given as “A (≥70% compound remaining at timepoint)”. In addition, on K-RAS G12D, the “30 min Category (compound remaining at timepoint)” value is listed as “A (≥70% compound remaining at timepoint)”, the “3 hr Category (compound remaining at timepoint)” value is recorded as “A (≥70% compound remaining at timepoint)” and the “6 hr Category (compound remaining at timepoint)” value is listed as “A (≥70% compound remaining at timepoint)”.

On to `C=CC(=O)N1CCN(c2cc(C(=O)Nc3cc(O)cc4ccccc34)nc(NCc3ccnn3C)n2)C[C@@H]1CC#N` [Example 41, 6-[(3S)-3-(cyanomethyl)-4-prop-2-enoyl-piperazin-1-yl]-N-(3-hydroxy-1-naphthyl)-2-[(2-methylpyrazol-3-yl)methylamino]pyrimidine-4-carboxamide], for which, at K-RAS G12C, the “30 min Category (compound remaining at timepoint)” value was “A (≥70% compound remaining at timepoint)”, the “3 hr Category (compound remaining at timepoint)” value is recorded as “B (30%-70% compound remaining at timepoint)” and the “6 hr Category (compound remaining at timepoint)” value was “B (30%-70% compound remaining at timepoint)”. Besides, on K-RAS G12D, the “30 min Category (compound remaining at timepoint)” value is recorded as “A (≥70% compound remaining at timepoint)”, the “3 hr Category (compound remaining at timepoint)” value was “A (≥70% compound remaining at timepoint)” and the “6 hr Category (compound remaining at timepoint)” value is given as “A (≥70% compound remaining at timepoint)”.

Turning to `C=CC(=O)N1CCN(c2cc(C(=O)Nc3cc(O)cc4ccccc34)nc(OCc3cnn(C)c3)n2)C[C@@H]1CC#N` [Example 42, 6-[(3S)-3-(cyanomethyl)-4-prop-2-enoyl-piperazin-1-yl]-N-(3-hydroxy-1-naphthyl)-2-[(1-methylpyrazol-4-yl)methoxy]pyrimidine-4-carboxamide], at K-RAS G12C, the “30 min Category (compound remaining at timepoint)” value is given as “B (30%-70% compound remaining at timepoint)”, the “3 hr Category (compound remaining at timepoint)” value is “C (≤30% compound remaining at timepoint)” and the “6 hr Category (compound remaining at timepoint)” value is “C (≤30% compound remaining at timepoint)”. Besides, on K-RAS G12D, the “30 min Category (compound remaining at timepoint)” value is recorded as “A (≥70% compound remaining at timepoint)”, the “3 hr Category (compound remaining at timepoint)” value is reported as “A (≥70% compound remaining at timepoint)” and the “6 hr Category (compound remaining at timepoint)” value is recorded as “A (≥70% compound remaining at timepoint)”.

Consider `C=CC(=O)N1CCN(c2cc(C(=O)Nc3cc(O)cc4ccccc34)nc(NCC3CCCN(C)C3)n2)C[C@@H]1CC#N` (stereo partly drawn) [Example 43, 6-[(3S)-3-(cyanomethyl)-4-prop-2-enoyl-piperazin-1-yl]-N-(3-hydroxy-1-naphthyl)-2-[(1-methyl-3-piperidyl)methylamino]pyrimidine-4-carboxamide], for which, on K-RAS G12C, the “30 min Category (compound remaining at timepoint)” value is on record as “B (30%-70% compound remaining at timepoint)”, the “3 hr Category (compound remaining at timepoint)” value was “C (≤30% compound remaining at timepoint)” and the “6 hr Category (compound remaining at timepoint)” value is “C (≤30% compound remaining at timepoint)”. On K-RAS G12D, the “30 min Category (compound remaining at timepoint)” value is reported as “A (≥70% compound remaining at timepoint)”, the “3 hr Category (compound remaining at timepoint)” value is “A (≥70% compound remaining at timepoint)” and the “6 hr Category (compound remaining at timepoint)” value is given as “A (≥70% compound remaining at timepoint)”.
